The experiment addresses T1, human SSTR-5 (Homo sapiens, UniProt P35346).
T1 construct: expressed in transfected cells; host or cells: CHO-K1
The experiment can be described thus: Human SSTR-5 binding assay ([125I-Tyr11]somatostatin-14 displacement, membranes of transfected CHO-K1 cells). The settings on record: ratio greater than one = more selective for SSTR-5 than for SSTR-2. On the procedure: (2) Human SSTR-5 Binding Assay
CHO-K1 cells were transfected with the human SSTR-5 cDNA, described in Yamada, et al., Biochem Biophys. Res. Commun., 195-844 (1993) using standard techniques known in the molecular biological art. See, e.g., Patel, et al., Biochem. Biophys. Res. Comm. 198:605 (1994). Crude membranes were prepared by homogenization of the human SSTR-5 transfected CHO-K1 cells in 20 ml of ice-cold 50 mM Tris-HCl with a POLYTRON™ homogenizer (setting 6, 15 sec). Buffer was added to obtain a final volume of 40 ml, and the homogenate was centrifuged in a SORVAL™ SS-34 rotor at 39,000 g for 10 min at 0-4° C. The resulting supernatant was decanted and discarded. The pellet was rehomogenized in ice-cold buffer, diluted, and centrifuged as before. The final pellet was resuspended in the 10 mM Tris HCl and held on ice for the receptor binding assay.
The final assay volume was 0.3 ml. The incubations were terminated by rapid filtration through GF/C filters (pre-soaked in 0.3% polyethylenimine for 30 min) using a Brandel filtration manifold. Each tube and filter was then washed three times with 5 ml aliquots of ice-cold buffer.

Bridge positions count the residues as written; N and C are the ends. Square brackets hold non-standard residues; d marks the D form. Peptide text beside a SMILES is read from it.

T1 sequence (P35346 whole entry): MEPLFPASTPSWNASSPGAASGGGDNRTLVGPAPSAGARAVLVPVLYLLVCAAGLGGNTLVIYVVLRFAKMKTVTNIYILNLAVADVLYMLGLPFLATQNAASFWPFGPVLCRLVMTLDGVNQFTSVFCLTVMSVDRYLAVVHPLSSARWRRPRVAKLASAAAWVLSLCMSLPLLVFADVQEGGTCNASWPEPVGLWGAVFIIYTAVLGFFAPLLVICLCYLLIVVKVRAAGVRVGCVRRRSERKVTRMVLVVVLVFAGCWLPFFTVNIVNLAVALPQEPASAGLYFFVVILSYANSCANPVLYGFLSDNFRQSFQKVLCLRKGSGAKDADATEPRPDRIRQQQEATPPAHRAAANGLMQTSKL

For `NCCCC[C@@H]1NC(=O)[C@@H](Cc2c[nH]c3ccccc23)NC(=O)[C@H](Cc2c[nH]c3ccccc23)NC(=O)[C@H](Cc2ccccc2)NC(=O)[C@@H](N)CSSC[C@@H](C(N)=O)NC(=O)[C@H](Cc2ccccc2)NC(=O)[C@H](CO)NC1=O` [Analog III, H2 -c[Cys-Phe-Trp-D-Trp-Lys-Ser-Phe-Cys] -NH2] (H-CFW[dW]KSFC-NH2; disulfide 1-8), the “SSTR-2/SSTR-5 (ratio of the Ki's for human SSTR-2 and human SSTR-5)” value amounted to 12.1.

As for “H2 -c[Cys-Asn-Phe-Phe-D-Trp-Lys-Thr-Phe-Cys]-NH2 [Analog V]”, the “SSTR-2/SSTR-5 (ratio of the Ki's for human SSTR-2 and human SSTR-5)” value is given as 53.1.

`C[C@@H](O)[C@@H]1NC(=O)[C@H](CCCCN)NC(=O)[C@@H](Cc2c[nH]c3ccccc23)NC(=O)[C@H](Cc2ccccc2)NC(=O)[C@H](Cc2ccccc2)NC(=O)[C@H](N)CSSC[C@@H](C(N)=O)NC(=O)[C@H](Cc2ccccc2)NC1=O` [Analog II, H2 -c[D-Cys-Phe-Phe-D-Trp-Lys-Thr-Phe-Cys] -NH2] (H-[dC]FF[dW]KTFC-NH2; disulfide 1-8): the “SSTR-2/SSTR-5 (ratio of the Ki's for human SSTR-2 and human SSTR-5)” value is recorded as 4.94.

As to “H2 -c[Cys-Phe-Phe-D-Trp-Lys-Thr-Phe-Cys] -NH2 [Analog I]”, the “SSTR-2/SSTR-5 (ratio of the Ki's for human SSTR-2 and human SSTR-5)” value was found to be 40.2.

For `NCCCC[C@@H]1NC(=O)[C@@H](Cc2c[nH]c3ccccc23)NC(=O)[C@H](Cc2ccccc2)NC(=O)[C@H](Cc2ccccc2)NC(=O)[C@@H](N)CSSC[C@@H](C(N)=O)NC(=O)[C@H](Cc2ccccc2)NC(=O)[C@H](CO)NC1=O` [Analog IV, H2 -c[Cys-Phe-Phe-D-Trp-Lys-Ser-Phe-Cys] -NH2] (H-CFF[dW]KSFC-NH2; disulfide 1-8), the “SSTR-2/SSTR-5 (ratio of the Ki's for human SSTR-2 and human SSTR-5)” value is listed as 20.8.

The values above are taken from patent US6001801A, “Cyclic peptide analogs of somatostatin” (Biomeasure, Inc., priority 1998, dated 1999).
